How the values were obtained:
[1] = Serum vitamin B12 levels after inhalation of aerosolized sample (Example 7); format: in vivo; conditions: 75 minutes after initial inhalation
Experimental: An electronic inhaler device powered by a 4.2V, 320 mAh lithium-ion battery was used to aerosolize a sample containing vitamin B12 in organic vegetable glycerin and 1,3-propanediol and the aerosolized sample was inhaled by test subjects. The sample was heated to between 75 to 260° C. with a 3 ohm heating element in about 2 to about 3 second intervals with about 5 to about 10 second rest periods for a total of […]. The mixture contained 60% glycerin and 40% 1,3-propanediol to which 2 mg/ml vitamin B12 was added. Serum vitamin B12 levels were measured in the test subjects before inhalation of the aerosolized sample and 75 minutes after initial inhalation of the aerosolized sample. Before inhalation, serum B12 levels averaged 403.0 pg/ml.

[2] = healthy individuals, cited from earlier work

cobalamin [vitamin B12]
increase of serum B12 compared to levels before inhalation [1]: 5.4%
serum B12 levels after inhalation (average) ([1]; 2 mg/ml vitamin B12, before inhalation 403.0 pg/ml): 424.7 pg/mL
fraction of oral supplement absorbed ([2]; 500 mcg oral supplement): 2%
amount of oral supplement absorbed ([2]; of a 500 mcg oral supplement): about 10 mcg

Reference: patent US20200108009A1, “BIOAVAILABLE AEROSOLIZED SUPPLEMENT FORMULATIONS AND METHODS THEREOF” (Inhale Health LLC, priority 2017, published 2020)
